We go through 2 molecules from paper PMC10676574, “In-silico and in-vitro screening of Asiatic acid and Asiaticoside A against Cathepsin S enzyme” (BMC Pharmacology & Toxicology, 2023).

The assay concerns the target T1, Cathepsin S (Homo sapiens, UniProt P25774).
T1 construct: gene CTSS
As to the kind of experiment: fluorometric cathepsin S inhibitor assay kit (ab185437), Z-VVR-AFC substrate, kinetic mode. Type of assay: biochemical.

Where two headings read alike, the source gives them in different places.

T1 sequence (P25774 115-331): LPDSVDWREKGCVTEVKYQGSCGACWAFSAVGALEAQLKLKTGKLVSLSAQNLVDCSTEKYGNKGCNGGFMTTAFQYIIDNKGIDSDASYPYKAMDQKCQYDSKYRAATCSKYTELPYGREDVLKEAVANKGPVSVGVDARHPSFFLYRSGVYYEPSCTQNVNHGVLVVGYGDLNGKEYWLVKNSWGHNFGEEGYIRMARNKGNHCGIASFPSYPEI

The term IC50 denotes the concentration at which inhibition is half-maximal. Take `C[C@H]1[C@H](C)CC[C@]2(C(=O)O)CC[C@]3(C)C(=CC[C@@H]4[C@@]5(C)C[C@@H](O)[C@H](O)[C@@](C)(CO)[C@@H]5CC[C@]43C)[C@H]12` [asiatic acid]: the midpoint of inhibition, the IC50, lay at 14.6 µM. Regarding asiaticoside A, the IC50 (read-out: IC50) turned out to be 0.667 µM.
